Key:
[1] = tested on: capsaicin induced hypothermie; experiment: Hypothermie assay in the mouse (capsaicin induced hypothermie); assay type: in vivo; settings: mouse, read-out: inhibition hypothermie (n = 5); for inhibition in vivo at 0.3 mg/kg: 0.3 mg/kg body weight po
Procedure: V. Hypothermie Assay an der Maus
Male NMRI mice (weight 25-35 gram, supplier IFFA CREDO, Bruxelles, Belgium) are used in the hypothermie assay. The animals are kept under standardized conditions: light/darkness interval (6:00 to 18:00 light; 18:00 to 6:00 Uhr darkness), room temperature 19-22° C., relative humidity 35-70%, 15 times per hour change of compartment air, airflow <0.2 m/sec. The animals were fed on a standardized diet (ssniff diet, ssniff Spezialdiäten GmbH, Soest, Germany) and tap water. Water and diet were detracted during the experiment. All animals were used once in the experiment. The animals were allowed to adapt to the experimental conditions for at least 5 days.
The acute application of capsaicin (VR-1 agonist) leads to a decrease of the core body temperature in rat and mice via stimulation of heat sensors. Only compounds which act as specific VR-1-receptor antagonists can antagonize the capsaicin induced hypothermie. In contrast, morphine induced hypothermie is not antagonized by VR-1 antagonists. Thus, this experiment is suitable for the determination of compounds that act as VR1-antagonists via their effect on the core body temperature.
For the determination of the core body temperature a digital thermometer was used (Thermalert TH-5, physitemp, Clifton N.J., USA). The measuring head was inserted into the rectum.
The individual basis value is determined by measuring the body temperature twice in an interval of about half an hour. […] […] The test compound is given 10 min (i.v.) or 15 min (p.o.), respectively, before application of capsaicin. The body temperature is determined 7.5/15 and 30 min after application of capsaicin (i.v.+i.p.) or 15/30/60/90/120 min after application of capsaicin (p.o.+i.p.), respectively. In addition, another group of mice is only given the test compound or a vehicle control.
The measuring points are given as average values±S.E.M. of the absolute values. The antagonistic effect is given in percent of inhibition of capsaicin induced hypothermie.

[2] = target: T1, vanilloid receptor 1 (VR1/TRPV1) of the rat species (Rattus norvegicus, UniProt O35433); experiment: FLIPR Ca2+ influx assay on rat dorsal root ganglia cells (pharmacological method I); assay type: cell-based; settings: table 4; capsaicin; read-out: Ki (rat) Cap.
T1 construct: The spinal column is removed from decapitated rats; from tissue; host or cells: primary cells dissociated from rat dorsal root ganglia
Summary of the method: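 Primary rat dorsal root ganglion cells loaded with 2 μM Fluo-4, Ca2+ influx read on FLIPR as peak fluorescence. Triplicates, at least 3 independent experiments.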

vanilloid receptor (VR1) = target: T2, vanilloid receptor (VR1) (Homo sapiens, UniProt Q8NER1); experiment: FLIPR Ca2+ influx assay on CHO K1 cells transfected with the VR1 gene (pharmacological method II); assay type: cell-based; settings: table 4; capsaicin; read-out: Ki (human) Cap.
T2 construct: expressed in transfected cells; host or cells: CHO K1 cells (ECACC), stably transfected

VR1/TRPV1 receptor = VR1/TRPV1 receptor (Homo sapiens, UniProt Q8NER1); experiment: IC50 (human) after pH stimulus; assay type: cell-based; settings: for IC50: table 4
Chain of VR1/TRPV1 receptor (Q8NER1 whole entry): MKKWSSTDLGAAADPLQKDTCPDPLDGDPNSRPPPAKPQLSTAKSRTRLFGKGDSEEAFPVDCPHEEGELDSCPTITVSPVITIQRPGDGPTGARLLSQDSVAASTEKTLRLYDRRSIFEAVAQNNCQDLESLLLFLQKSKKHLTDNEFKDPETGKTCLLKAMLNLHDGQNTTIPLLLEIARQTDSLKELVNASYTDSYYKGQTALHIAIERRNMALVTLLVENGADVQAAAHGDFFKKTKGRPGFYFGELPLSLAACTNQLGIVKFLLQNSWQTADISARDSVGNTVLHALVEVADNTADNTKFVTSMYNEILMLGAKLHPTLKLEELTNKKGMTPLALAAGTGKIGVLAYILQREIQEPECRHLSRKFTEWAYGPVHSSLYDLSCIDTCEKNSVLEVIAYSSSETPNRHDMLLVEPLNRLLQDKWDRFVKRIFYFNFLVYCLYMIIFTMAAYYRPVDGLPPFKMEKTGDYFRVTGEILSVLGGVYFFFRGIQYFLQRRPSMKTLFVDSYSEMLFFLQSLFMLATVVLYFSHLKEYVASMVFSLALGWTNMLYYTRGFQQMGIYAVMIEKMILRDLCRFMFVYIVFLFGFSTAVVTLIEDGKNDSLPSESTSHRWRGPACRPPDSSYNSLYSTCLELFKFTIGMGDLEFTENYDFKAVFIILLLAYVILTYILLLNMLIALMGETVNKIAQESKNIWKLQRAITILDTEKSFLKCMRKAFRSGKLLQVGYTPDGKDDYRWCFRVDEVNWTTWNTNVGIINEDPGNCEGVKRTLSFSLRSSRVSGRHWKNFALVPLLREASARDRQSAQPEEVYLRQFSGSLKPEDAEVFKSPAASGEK

T2 sequence (Q8NER1 whole entry): as above
T1 sequence (O35433 whole entry): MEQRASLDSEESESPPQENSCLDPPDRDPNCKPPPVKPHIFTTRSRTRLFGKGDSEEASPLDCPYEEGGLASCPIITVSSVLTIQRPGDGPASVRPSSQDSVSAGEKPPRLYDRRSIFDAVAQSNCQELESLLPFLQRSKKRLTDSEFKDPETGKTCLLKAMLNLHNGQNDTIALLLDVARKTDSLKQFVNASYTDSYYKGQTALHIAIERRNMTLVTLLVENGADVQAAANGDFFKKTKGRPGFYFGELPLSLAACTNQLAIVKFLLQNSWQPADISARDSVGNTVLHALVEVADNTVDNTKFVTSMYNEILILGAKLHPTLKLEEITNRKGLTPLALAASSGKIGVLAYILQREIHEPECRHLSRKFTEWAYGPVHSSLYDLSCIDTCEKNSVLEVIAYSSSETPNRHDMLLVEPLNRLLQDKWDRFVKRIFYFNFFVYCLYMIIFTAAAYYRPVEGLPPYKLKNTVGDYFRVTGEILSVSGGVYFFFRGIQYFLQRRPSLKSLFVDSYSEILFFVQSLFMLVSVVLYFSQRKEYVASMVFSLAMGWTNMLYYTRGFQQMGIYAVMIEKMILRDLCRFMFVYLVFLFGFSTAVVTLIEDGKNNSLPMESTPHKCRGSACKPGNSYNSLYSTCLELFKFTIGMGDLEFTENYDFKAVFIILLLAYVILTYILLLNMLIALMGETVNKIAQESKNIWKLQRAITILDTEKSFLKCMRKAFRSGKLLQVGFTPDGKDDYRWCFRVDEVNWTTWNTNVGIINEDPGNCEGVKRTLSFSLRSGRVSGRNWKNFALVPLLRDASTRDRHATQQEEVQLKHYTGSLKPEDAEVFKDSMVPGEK

Row | Compound | Ki [2] [nM] | Ki (vanilloid receptor (VR1)) [nM] | IC50 (VR1/TRPV1 receptor) [nM] | inhibition at 10 µM (VR1/TRPV1 receptor; @ 10 μM, read-out: inhibition in percent, IC50 (human) after pH stimulus) [%] | inhibition in vivo at 0.3 mg/kg [1] [%] | inhibition in vivo at 3 mg/kg ([1]; 3 mg/kg body weight po) [%]
1 | C[C@@H](C(=O)NCc1ccc(C(F)(F)F)nc1-c1ccc(F)c(Cl)c1)c1ccc(NS(C)(=O)=O)c(F)c1 [Example 121, (R)-N-[2-(3-chloro-4-fluoro-phenyl)-6-trifluoromethyl-pyridin-3-ylmethyl]-2-(3-fluoro-4-methylsulfonamido-phenyl)-propionamide] | 5.8 | 13.2 | – | 56 | 12 | –
2 | CC(C(=O)NCc1ccc(C(F)(F)F)nc1-c1ccc(Cl)cc1)c1ccc(NS(C)(=O)=O)c(F)c1 (stereo not drawn) [Example 147, N-[2-(4-chloro-phenyl)-6-trifluoromethyl-pyridin-3-ylmethyl]-2-(3-fluoro-4-methylsulfonamido-phenyl)-propionamide] | 1 | 0.7 | 10.4 | – | 3 | –
3 | CC(C(=O)NCc1ccc(C(F)(F)F)nc1Nc1ccccc1)c1ccc(NS(C)(=O)=O)c(F)c1 (stereo not drawn) [Example 110, 2-(3-fluoro-4-methylsulfonamido-phenyl)-N-(2-phenylamino-6-trifluoromethyl-pyridin-3-ylmethyl)-propionamide] | 63.1 | 59.6 | 1400 | – | 13 | –
4 | CC(C(=O)NCc1ccc(C(F)(F)F)nc1-n1ccnc1)c1ccc(NS(C)(=O)=O)c(F)c1 (stereo not drawn) [Example 87, 2-(3-fluoro-4-methylsulfonamido-phenyl)-N-((6-(trifluoromethyl)-2-(1H-imidazol-1-yl)pyridin-3-yl)methyl)-propionamide] | 143 | – | 2570 | – | 0 | –

Continued, in another order:

Row | Ki [2] [nM] | Ki (vanilloid receptor (VR1)) [nM] | IC50 (VR1/TRPV1 receptor) [nM] | inhibition at 10 µM (VR1/TRPV1 receptor; @ 10 μM, read-out: inhibition in percent, IC50 (human) after pH stimulus) [%] | Compound | inhibition in vivo at 0.3 mg/kg [1] [%] | inhibition in vivo at 3 mg/kg ([1]; 3 mg/kg body weight po) [%]
5 | 1.2 | 0.5 | 19.8 | – | CC(C(=O)NCc1ccc(C(F)(F)F)nc1N1CCC(F)CC1)c1ccc(NS(C)(=O)=O)c(F)c1 (stereo not drawn) [Example 138, 2-(3-fluoro-4-methylsulfonamido-phenyl)-N-(4-fluoro-6′-trifluoromethyl-3,4,5,6-tetrahydro-2H-[1,2′]bipyridinyl-3′-ylmethyl)-propionamide] | 0 | –
6 | 0.5 | 0.7 | 27.3 | – | CCCCCOc1nc(C(F)(F)F)ccc1CNC(=O)C(C)c1ccc(NS(C)(=O)=O)c(F)c1 (stereo not drawn) [Example 225, 2-(3-fluoro-4-methylsulfonamido-phenyl)-N-(2-pentyloxy-6-trifluoromethyl-pyridin-3-ylmethyl)-propionamide] | 20 | –
7 | 1.9 | 2.5 | 44.5 | – | COc1ccc(N2CCN(c3nc(C(F)(F)F)ccc3CNC(=O)C(C)c3ccc(NS(C)(=O)=O)c(F)c3)CC2)cc1 (stereo not drawn) [Example 221, 2-(3-fluoro-4-methylsulfonamido-phenyl)-N-{2-[4-(4-methoxy-phenyl)-piperazin-1-yl]-6-trifluoromethyl-pyridin-3-ylmethyl}-propionamide] | 18 | –
8 | 0.4 | 0.3 | 5.1 | – | CC(C(=O)NCc1ccc(C(F)(F)F)nc1OCC1CC1C)c1ccc(NS(C)(=O)=O)c(F)c1 (stereo not drawn) [Example 124, 2-(3-fluoro-4-methylsulfonamido-phenyl)-N-[2-(2-methyl-cyclopropylmethoxy)-6-trifluoromethyl-pyridin-3-ylmethyl]-propionamide] | 39 | –
9 | 0.2 | 0.9 | 34.9 | – | CC(C(=O)NCc1ccc(C(F)(F)F)cc1OCc1ccccc1)c1ccc(NS(C)(=O)=O)c(F)c1 (stereo not drawn) [Example 209, N-(2-benzyloxy-4-trifluoromethyl-benzyl)-2-(3-fluoro-4-methylsulfonamido-phenyl)-propionamide] | – | 46
10 | 0.6 | 0.7 | 40.4 | – | CCCCSc1nc(C(F)(F)F)ccc1CNC(=O)C(C)c1ccc(NS(C)(=O)=O)c(F)c1 (stereo not drawn) [Example 122] | 33 | –

Reference: patent US8710233B2 (Gruenenthal GmbH, priority 2005, dated 2014)
